Measured values taken from patent publication US8450354B2, “Substituted imidazo[1,2-b]pyridazine derivatives, pharmaceutical compositions, and methods of use as β-secretase inhibitors” (High Point Pharmaceuticals, LLC, priority 2010, dated 2013).

Key:
BACE-1 enzyme = target: T1, BACE-1 enzyme (Homo sapiens, UniProt P56817); assay: BACE Fluorescence Resonance Energy Transfer (FRET) Assay; type: biochemical; conditions: pH 4-4.5, 30 min pre-incubation, about 1.5 hours reaction, asterisk = mean
T1 construct: purchased R & D Systems 931AS
T1 sequence (P56817 46-457 limits assumed): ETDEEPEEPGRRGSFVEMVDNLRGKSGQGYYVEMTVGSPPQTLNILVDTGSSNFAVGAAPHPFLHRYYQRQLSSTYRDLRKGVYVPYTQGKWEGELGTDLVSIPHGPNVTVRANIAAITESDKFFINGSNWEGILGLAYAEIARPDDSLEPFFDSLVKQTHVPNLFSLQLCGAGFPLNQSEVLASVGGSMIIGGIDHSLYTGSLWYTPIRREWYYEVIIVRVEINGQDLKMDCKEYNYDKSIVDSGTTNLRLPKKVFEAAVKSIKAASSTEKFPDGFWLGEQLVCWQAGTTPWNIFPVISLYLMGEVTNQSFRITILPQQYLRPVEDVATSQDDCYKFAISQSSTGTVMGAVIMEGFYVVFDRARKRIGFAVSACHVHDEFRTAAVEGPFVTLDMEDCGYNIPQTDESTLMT
Procedure: BACE Fluorescence Resonance Energy Transfer (FRET) Assay
In the following assay, the proteolytic activity of BACE is measured by observing cleavage of a fluorescent group from a peptide substrate containing a rhodamine fluorescent donor and a quenching acceptor.
The inhibitory activity of compounds of Formula (I) may be compared to a statine derived control inhibitor STA200 (MP Biomedical Cat. #STA-200). The cleavage reaction occurs when a BACE-1 substrate (Invitrogen, Cat. #P2986) was added to a reaction mixture containing BACE-1 enzyme (R & D Systems, Cat. #931AS) and allowed to proceed for about 1.5 hours. Fluorescence, used as a marker of BACE activity, is monitored using 540 nm excitation and 585 nm emission wavelengths (Envision, Perkin Elmer).
A typical assay reaction contains BACE-1 enzyme-in assay buffer (50 mM sodium acetate, pH 4-4.5, 0.01% CHAPS (3-[(3-Cholamidopropyl)dimethylammonio]-1-propanesulfonate), 0.0125% TritonX-100, 0.006% EDTA) which is pre-incubated for 30 minutes with test compound in 7.5% DMSO. The reaction is initiated with the addition of BACE-1 substrate in assay buffer and allowed to proceed for about 1.5 hours at room temperature. Assays are conducted in black 384-well microtiter plates and scanned at room temperature using 540 nm excitation and 585 nm emission wavelengths.
In some instances, the percent inhibition at a given concentration is reported instead of the IC50.

[1] = Aβ Cell Based Assay (Aβ1-40 secretion, ELISA); set-up: species or system human; conditions: Homo sapiens, HEK293; HEK-APPwt cells, 6 hours incubation, reduction of Aβ1-40 secretion; asterisk = mean
Procedure: Aβ Cell Based Assay Procedure
In the following assay, the proteolytic activity of BACE in cells exposed to varying concentrations of a compound of interest is measured by observing the amount of Aβ1-40 secreted from HEK293 cells (Human Embryonic Kidney epithelial cell line) stably expressing wildtype human APP695 protein (HEK-APPwt cells).
HEK-APPwt cells were grown in high glucose DMEM (Dulbecco's Modified Eagles Medium SIGMA Cat. #D5796) supplemented with 25 mM HEPES (4-(2-hydroxyethyl)-1-piperazineethanesulfonic acid) (pH 7.4) (Invitrogen Cat. #15630-114), 0.1 mM NEAA (Non-essential Amino Acids) (BioWhittaker Cat. #13-114E), 10% fetal bovine serum (SIGMA Cat. #F4135) and 250 μg/mL hygromycin (Invitrogen Cat. #10687-010) in T-225 flasks at 37° C. with 5% CO2 and humidity control.
Test compounds were initially prepared in DMSO and diluted with DMEM media containing 2% FBS (Fetal bovine serum). Ten standard compound solutions were prepared having a range of concentrations. The standard compound solutions were used to determine the EC50 of the test compound. The range of concentrations chosen may depend on the compound's predicted potency.
To prepare cells for the assay, a flask containing HEK-APPwt cells were trypsinized briefly (1 mL trypsin), and once the cells detached, 4 mL of 10% FBS-DMEM was added to the flask. The detached cells were centrifuged at 900 rpm for 5 min to form a pellet.
The HEK-APPwt cell pellet was re-suspended with 10 mL DMEM media containing 2% FBS. 80 μL of the cell suspension was added to each well of a 96-well cell culture plate to give 100×10^4 cells/ml. 10 μL of a standard compound solution was added to each well of the 96-well cell culture plate followed by 10 μL of Alamar blue solution. The cells were incubated at 37° C. in a 5% CO2 incubator for 6 hours.
At the end of the incubation, the plates were removed from incubator, and the supernatant was collected. Aβ1-40 concentration in the medium was measured by using a commercial Aβ1-X ELISA kit (IBL, Japan Cat. #27729). Briefly, the ELISA plates were coated with an anti-human Aβ (N)(82E1) mouse IgG monoclonal antibody. A horseradish peroxidase conjugated anti-human Aβ11-28 mouse IgG monoclonal antibody was used for detection. The cell culture supernatant was diluted with EIA buffer+protease inhibitors (kit buffer containing protease inhibitors (1 mL PI/30 mL buffer)). A 100 μL aliquot of the diluted supernatant was added to each well of the ELISA plate and incubated for 6 hrs at 4° C. The ELISA plate was washed 8 times with phosphate buffered saline (PBS) containing 0.05% TWEEN 20.
A 100 μL of detection antibody was then added and incubated for 1 hour at 4° C. The plate was washed 8 times with PBS buffer containing 0.05% Tween 20 followed by addition of 100 μL of the chromogen tetramethylbenzidine (TMB). The plate was incubated in the dark at room temperature for about 30 min and a stop solution (1N H2SO4) was added.
The intensity of the color developed was measured at 450 nm. The optical density at 450 nm (OD450) is proportional to the concentration of human Aβ1-40 secreted by the cell. As a reference, N—[N-(3,5-difluorophenacetyl-L-alanyl)]—S-phenylglycine t-butyl ester (DAPT, a γ-secretase inhibitor) was used to indicate 100% inhibition of […]. Thus, the assay measures the ability of a compound of interest to reduce Aβ1-40 secretion. Compound potency is reported in Table 3 as the EC50 by calculating the percent inhibition at all concentration levels and the data were fit with non-linear curve fitting algorithm using GraphPad Prism.

SMILES | IC50 (BACE-1 enzyme) | EC50 [1]
COc1ccc2nc(C(=O)Nc3nc4cc(-c5cc(F)cc(Cl)c5)ccc4[nH]3)cn2n1 [Example 7] | 0.225 µM | 0.7 µM
O=C(Nc1nc2cc(-c3cccc(C(F)(F)F)c3)ccc2[nH]1)c1cn2nc(OCCN3CCCC3=O)ccc2n1 [Example 25] | 0.316 µM | 1.35 µM
O=C(Nc1nc2cc(-c3cccc(C(F)(F)F)c3)ccc2[nH]1)c1cn2nc(OCCN3CCNC3=O)ccc2n1 [Example 26] | 0.222 µM | 1.41 µM
O=C(Nc1nc2cc(-c3cccc(C(F)(F)F)c3)ccc2[nH]1)c1cn2nc(OCCN3CCOCC3)ccc2n1 [Example 27, 6-(2-Morpholin-4-yl-ethoxy)-imidazol[1,2-b]pyridazine-2-carboxylic acid [5-(3-trifluoromethyl-phenyl)-1H-benzoimidazol-2-yl]-amide] | 0.262 µM | 0.58 µM
O=C(Nc1nc2cc(-c3cccc(OC(F)(F)F)c3)ccc2[nH]1)c1cn2nc(OCCn3cncn3)ccc2n1 [Example 29] | 0.314 µM | 2.58 µM
O=C(Nc1nc2cc(-c3cccc(OC(F)(F)F)c3)ccc2[nH]1)c1cn2nc(OCCN3CCCC3=O)ccc2n1 [Example 31] | 0.313 µM | 2.5 µM
O=C(Nc1nc2cc(-c3cccc(OC(F)(F)F)c3)ccc2[nH]1)c1cn2nc(OCCN3CCOCC3)ccc2n1 [Example 32] | 0.234 µM | 0.59 µM
CN1CCN(CCOc2ccc3nc(C(=O)Nc4nc5cc(-c6cccc(OC(F)(F)F)c6)ccc5[nH]4)cn3n2)CC1 [Example 35] | 0.315 µM | 3.13 µM
O=C(Nc1nc2cc(-c3cccc(C(F)(F)F)c3)ccc2[nH]1)c1cn2nc(OCCN3CCCCCC3)ccc2n1 [Example 40] | 0.307 µM | 2.68 µM
CN1CCN(CCOc2ccc3nc(C(=O)Nc4nc5cc(-c6cccc(C(F)(F)F)c6)ccc5[nH]4)cn3n2)CC1 [Example 41] | 0.232 µM | 2.62 µM
CN(C)CCN(C)CCOc1ccc2nc(C(=O)Nc3nc4cc(-c5cccc(C(F)(F)F)c5)ccc4[nH]3)cn2n1 [Example 43] | 0.335 µM | 2.88 µM
O=C(Nc1nc2cc(-c3cccc(C(F)(F)F)c3)ccc2[nH]1)c1cn2nc(OCCn3cncn3)ccc2n1 [Example 45] | 0.198 µM | 1.31 µM
O=C(Nc1nc2cc(-c3cccc(C(F)(F)F)c3)ccc2[nH]1)c1cn2nc(OCCN3CCCCC3)ccc2n1 [Example 46] | 0.248 µM | 3.81 µM
O=C(Nc1nc2cc(-c3cccc(OC(F)(F)F)c3)ccc2[nH]1)c1cn2nc(OCCN3CCCCC3)ccc2n1 [Example 47] | 0.24 µM | 1.96 µM
CN(C)CCN(C)CCOc1ccc2nc(C(=O)Nc3nc4cc(-c5cc(F)cc(Cl)c5)ccc4[nH]3)cn2n1 [Example 49] | 0.21 µM | 1.8 µM
O=C(Nc1nc2cc(-c3cc(F)cc(Cl)c3)ccc2[nH]1)c1cn2nc(OCCN3CCOCC3)ccc2n1 [Example 50] | 0.267 µM | 0.58 µM
O=C(Nc1nc2cc(-c3cc(F)cc(Cl)c3)ccc2[nH]1)c1cn2nc(OCCN3CCCCCC3)ccc2n1 [Example 53] | 0.216 µM | 2.62 µM
O=C(Nc1nc2cc(-c3cc(F)cc(Cl)c3)ccc2[nH]1)c1cn2nc(OCCN3CCCC3=O)ccc2n1 [Example 54] | 0.211 µM | 0.87 µM
O=C(Nc1nc2cc(-c3ccc(Cl)c(C(F)(F)F)c3)ccc2[nH]1)c1cn2nc(OCCN3CCOCC3)ccc2n1 [Example 64] | 0.22 µM | 0.97 µM
CN1CC[C@H](Oc2ccc3nc(C(=O)Nc4nc5cc(-c6cc(F)cc(Cl)c6)ccc5[nH]4)cn3n2)C1 [Example 69] | 0.3 µM | 2.93 µM

SMILES | IC50 (BACE-1 enzyme) | EC50 [1]
CC1(C)CCC(c2ccc3[nH]c(NC(=O)c4cn5nc(N6CCC(O)CC6)ccc5n4)nc3c2)CC1 [Example 83] | 0.18 µM | 1.47 µM
CC1(C)CCC(c2ccc3[nH]c(NC(=O)c4cn5nc(N6CCCC(O)C6)ccc5n4)nc3c2)CC1 (stereo not drawn) [Example 84] | 0.191 µM | 1.71 µM
CC1(C)CCC(c2ccc3[nH]c(NC(=O)c4cn5nc(N6CC[C@@H](O)C6)ccc5n4)nc3c2)CC1 [Example 85] | 0.089 µM | 2.27 µM
CC1(C)CCC(c2ccc3[nH]c(NC(=O)c4cn5nc(N6CC[C@H](O)C6)ccc5n4)nc3c2)CC1 [Example 86] | 0.123 µM | 2.46 µM
COC1CCN(c2ccc3nc(C(=O)Nc4nc5cc(C6CCC(C)(C)CC6)ccc5[nH]4)cn3n2)CC1 [Example 87] | 0.56 µM | –
CC1(C)CCC(c2ccc3[nH]c(NC(=O)c4cn5nc(OC6CCC(O)CC6)ccc5n4)nc3c2)CC1 (stereo not drawn) [Example 88] | 0.476 µM | –
CO[C@@H]1CCN(c2ccc3nc(C(=O)Nc4nc5cc(C6CCC(C)(C)CC6)ccc5[nH]4)cn3n2)C1 [Example 89] | 0.16 µM | –
CO[C@@H]1CCN(c2ccc3nc(C(=O)Nc4nc5cc(-c6ccc(C)s6)ccc5[nH]4)cn3n2)C1 [Example 90] | 1.38 µM | –
CO[C@H]1CCN(c2ccc3nc(C(=O)Nc4nc5cc(-c6ccc(C)s6)ccc5[nH]4)cn3n2)C1 [Example 91] | 2.34 µM | –
O=C(Nc1nc2cc(C3CCCC3)ccc2[nH]1)c1cn2nc(N3CC[C@@H](O)C3)ccc2n1 [Example 95] | 0.431 µM | –
O=C(O)CCNc1ccc2nc(C(=O)Nc3nc4cc(-c5cccc(Cl)c5)ccc4[nH]3)cn2n1 [Example 96] | 0.328 µM | –
O=C(O)COc1ccc2nc(C(=O)Nc3nc4cc(-c5cccc(C(F)(F)F)c5)ccc4[nH]3)cn2n1 [Example 97] | 0.161 µM | –
CC1(COc2ccc3nc(C(=O)Nc4nc5cc(-c6cc(F)cc(Cl)c6)ccc5[nH]4)cn3n2)COC1 [Example 98] | 0.248 µM | 0.44 µM
C[C@H](O)[C@@H](C)Oc1ccc2nc(C(=O)Nc3nc4cc(-c5cccc(C(F)(F)F)c5)ccc4[nH]3)cn2n1 [Example 99] | 0.189 µM | 0.78 µM
C[C@@H](O)[C@@H](C)Oc1ccc2nc(C(=O)Nc3nc4cc(-c5cccc(C(F)(F)F)c5)ccc4[nH]3)cn2n1 [Example 100] | 0.26 µM | 0.7 µM
C[C@@H](CO)Oc1ccc2nc(C(=O)Nc3nc4cc(-c5cccc(OC(F)(F)F)c5)ccc4[nH]3)cn2n1 [Example 103] | 0.334 µM | –
CN(C)CC(O)COc1ccc2nc(C(=O)Nc3nc4cc(-c5cccc(C(F)(F)F)c5)ccc4[nH]3)cn2n1 (stereo not drawn) [Example 110] | 0.268 µM | –
CCC[C@H](O)COc1ccc2nc(C(=O)Nc3nc4cc(-c5cc(F)cc(Cl)c5)ccc4[nH]3)cn2n1 [Example 125] | 1.18 µM | –
O=C(Nc1nc2cc(-c3cc(F)cc(Cl)c3)ccc2[nH]1)c1cn2nc(OCC[C@@H](O)CO)ccc2n1 [Example 129] | 0.293 µM | –
